In patent US20010049353A1, “Method of using secretin and compositions made therefrom for the treatment of autism and other neurological, behavioral and immunological disorders” (Repligen Corporation, priority 1998, published 2001):
No end group written: not given here.

Legend:
[1] = test system: patient, a child with symptoms of autism; assay: Intravenous secretin infusion in a child with symptoms of autism (Example 1); format: in vivo, human
Description: The present invention will be better understood from the following examples which are given by way of illustration and not by way of limitation. The patient, the same in both examples, is a child with symptoms of autism.
The patient in the present examples developed normally […], with the exception of gastrointestinal problems (i.e., chronic diarrhea and constipation) which began at about six months. At about thirteen months, when whole milk was introduced into their diet, the patient began having reoccurring ear infections. At about fourteen months, the patient appeared to lose the ability to process language, first receptively (at about 14 months) then expressively (at about 16 months). The patient also experienced episodes of “shivers” that appeared to be intermittent seizures.
After consulting with numerous neurologists, pediatricians, child development specialists, audiologists, endocrinologists, allergists, and other medical professionals, no consistent diagnosis had been reached. […] The term autism is used herein for reference purposes only, and this invention is intended to apply to any number of pervasive developmental disorders as well as neurological and immunological disorders.
Further, the patient's secretin cells prior to receiving treatment, measured at a level of 9, are far below the normal limit in the range of 20-70.
When the patient was […], the secretin was administered by way of an infusion as part of an upper gastrointestinal endoscopy. The secretin was used in this diagnostic procedure at the request of the patient's parents, one of which is an inventor of the present invention. The secretin used in this procedure is known as Secretin-Ferring available from Ferring Laboratories, Inc., Suffern, New York (See Appendix A). The secretin was dissolved in a […] of sodium chloride and administered in a dosage of 2 clinical units (CU) per kilogram (kg) body weight by intravenous injection over one minute. […] The diagnostic tests performed on the patient during this procedure also indicated gastric inflammation. […] The following Table I summarizes the improvements observed in the patient within 3 weeks after the infusion of secretin.

[2] = test system: patient, a child with symptoms of autism; assay: Daily transdermal secretin with DMSO in the same patient (Example 2); format: in vivo, human
Method: At the time of this treatment, the patient was […]. Secretin was administered transdermally using pharmaceutical grade dimethyl sulfoxide (DMSO) (generally 99.9% pure) available from Clinic Service Co., Box 2512, Hemet Calif. 92543. The secretin (Secretin-Ferring) was administered daily in a dosage of about 75 CU over a five day period (i.e., about 15 CU daily). For each treatment, about 4 drops of DMSO were placed onto the skin of the patient, about 15 CU of the crystalline secretin was placed onto the DMSO, and the composition was rubbed into the skin.

[3] = test system: abnormal opioid peptides in autistic children; settings: autistic children that responded to casein free and gluten free diet; measured before and after infusion; cited from earlier work

## secretin (HSDGTFTSELSRLRDSARLQRLLQGLV; not fully specified; ends and bridges not checked; UniProt P63298 33-59, looked up) [polypeptide hormone secreted by the mucosa of the duodenum and upper jejunum; used as Secretin-Ferring from Ferring Laboratories]
[1]; after first infusion, behavioral improvements continued
  time at which the rate of progress appeared to decrease: about 5 weeks
[1]; after the treatment
  SPECT scan perfusion of the right posterior parietal and right temporal lobes: improved
[1]; after the treatment, before: 5.8
  rubella titers: 2.3
[1]; blood tests after the treatment
  serotonin levels in blood: a rise in serotonin levels
[1]; immediately after 2 CU/kg iv over one minute, usual rate 1-2 ml/min
  pancreatic juice released: approximately 10 ml/min
[1]; second infusion about 9 months after the first, third about three months after the second
  result of second and third infusions: achieved the same results
[1]; within 3 weeks after infusion, before: 1-2 times/week
  spinning episodes: No spinning episodes.
[1]; within 3 weeks after infusion, before: diapers only
  toilet training: Completely potty trained.
[1]; within 3 weeks after infusion, before: minimal eye contact
  eye contact, share of the time: Eye contact 75% of the time.
[1]; within 3 weeks after infusion, before: no apparent connections
  connections made between language and objects: Many connections made between
[1]; within 3 weeks after infusion, before: two words
  words spoken: 100's of words-will repeat some
[1]; within 3 weeks after infusion, before: watch videos
  interaction with videos: Now, gets “involved” interactively
[1]; within 3 weeks after infusion, no change, before: approximately 50 cups per day
  water consumption: change approximately 50 cups per cups per day
[1]; within days after administration, no change in diet
  chronic abnormal bowel movements: became normal
[2]; transdermal with DMSO, about 15 CU daily, within about 6 months
  language: progressed to spontaneous and conversational language
[2]; when the daily dose of secretin is stopped
  autistic behavioral symptoms on stopping the daily dose: the autistic behavioral symptoms return
[3]
  abnormal opioid peptides after secretin infusion: the peptides disappeared
